# In patent US20090075887A1, “Treatment with Kallikrein Inhibitors” (GENZYME CORPORATION, priority 2007, published 2009):
# Bridges are numbered along the chain shown (N, C = ends). Where no end group is shown, it is not given here.
# Target: plasma kallikrein (Homo sapiens, UniProt P03952)
# Experiment: Inhibition constant for plasma kallikrein
# Format: biochemical
# Conditions: plasma kallikrein (PK); value used for the dose calculation
# Sequence of plasma kallikrein (P03952 20-638): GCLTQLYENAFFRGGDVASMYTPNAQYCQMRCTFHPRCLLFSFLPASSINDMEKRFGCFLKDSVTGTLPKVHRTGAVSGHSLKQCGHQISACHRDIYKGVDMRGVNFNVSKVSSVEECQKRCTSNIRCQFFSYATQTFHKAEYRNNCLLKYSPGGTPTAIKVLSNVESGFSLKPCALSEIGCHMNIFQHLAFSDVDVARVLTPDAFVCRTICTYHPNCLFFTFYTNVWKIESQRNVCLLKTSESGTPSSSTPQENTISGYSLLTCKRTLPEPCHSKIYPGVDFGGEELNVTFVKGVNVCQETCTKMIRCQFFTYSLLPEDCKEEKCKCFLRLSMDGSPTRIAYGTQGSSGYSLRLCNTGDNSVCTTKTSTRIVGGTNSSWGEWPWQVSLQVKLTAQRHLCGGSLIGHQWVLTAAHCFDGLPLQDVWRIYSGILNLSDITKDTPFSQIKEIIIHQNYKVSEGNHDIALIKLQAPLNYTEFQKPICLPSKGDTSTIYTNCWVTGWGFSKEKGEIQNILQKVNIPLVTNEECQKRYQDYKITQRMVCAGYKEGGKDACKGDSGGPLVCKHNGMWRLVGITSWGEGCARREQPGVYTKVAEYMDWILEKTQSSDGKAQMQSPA
sequence,measurement,value
"EAMHSFCAFKADDGPCRAAHPRWFFNIFTRQCEEFIYGGCEGNQNRFESLEECKKMCTRD (disulfide 7-57, 16-40, 32-53) [DX88]",Ki,0.044 nM
